Data set [1] deals with vine downy mildew, Plasmopara viticola. Nature of the data set: Vine downy mildew control on vine plants (application to soil and leaves). The data set is classed as in vivo. As to conditions: 2000 ppm, 12 days, controls less than 5%. As to the method:
Aqueous acetone solutions of each of the compounds listed in the Table below, containing 2000 parts per million (ppm), together with 125 ppm of a suitable wetting agent, were applied to the soil surrounding the roots and leaves of vine plants having five fully expanded leaves.
The treated plants, together with controls treated with wetting agent alone, were inoculated 24 hours after the chemical application with an aqueous suspension of sporangia of the disease organism known as vine downy mildew, Plasmopara viticola.

In data set [2] the test system is Pythium ultimum. As to the kind of experiment: Fungal growth on the surface of soil infected with damping-off disease organism. The settings on record: 6 days, 25° C. Format: in vivo. As to the method: (§1) A one week old maize meal/sand culture of the damping-off disease organism Pythium ultimum was thoroughly mixed by hand with clean sterile John Innes No. 1 potting compost in the ratio of 3 kg culture to 12 liters of soil. The infected soil was then left for approximately 18 hours before use. Each of the compounds listed below was ground together with a wetting agent, Tween 20 (1% of final volume), until a solution or fine suspension was produced which was then diluted with distilled water to give 160 ml of solution containing 1500, 500, 150 or 50 ppm active ingredient. 15 ml aliquots of this solution were added to 75 g portions of the soil infected with Pythium ultimum which were contained in small plastic cartons, 60 mm diameter×55 mm high. Fifteen cabbage seeds, variety Flower of Spring, were placed in a circular depression in the treated infected soil, recovered, and the whole sealed with a plastic cap. The cartons were then placed in a constant temperature room at 25° C.±1° C. Four replications per treatment were made with one additional treatment where seeds were sown in soil which was chemically treated only, i.e. there was no infection. This latter treatment was included to measure the direct effect of the chemical on the germination of the seed. After six days the cartons were removed from the controlled temperature chamber and assessed for degree of fungal growth on the soil surface and percentage of seedling emergence. The results of both these assessments are expressed in a 0-8 scale as follows:
(§2) One week old maize meal/sand culture of the damping-off disease organism Pythium ultimum was thoroughly mixed by hand with clean sterile John Innes No. 1 potting compost in the ratio of 3 kg culture to 12 liters of soil. This infected soil was then left for approximately 18 hours before use. The compounds listed in the Table below were each ground with the wetting agent Tween 20 (1% of final volume), until a solution or fine suspension was produced, which was then diluted with distilled water to give 160 ml of solution containing 1500 or 500 parts per million (ppm) active ingredient. 15 ml aliquots of this solution were added to 75 g portions of the soil infected with Pythium ultimum which were contained in small plastic cartons, 60 mm diameter×55 mm high.
(§3) Fifteen cabbage seeds, variety Flower of Spring, were placed in a circular depression in the treated infected soil, recovered, and the whole sealed with a plastic cap. The cartons were then placed in a constant temperature room at 25° C.±1° C. Four replications per treatment were made, with one additional treatment where seeds were sown in soil which was chemically treated only, i.e. there was no infection. This latter treatment was included to measure the direct effect of the chemical on the germination of the seed.
(§4) After six days, the cartons were removed from the controlled temperature chamber and assessed for degree of fungal growth on the soil surface and percentage of seedling emergence. The results of both these assessments are expressed in a 0-8 scale as follows:
(§5) N-(2-oxopropyl)-3',4'-dimethyl-methanesulphonanilide was tested at a dose rate of 300 ppm in the test described in Examples 233 and 234. It gave a mycelial control score of 0 and a germination score of 3 whereas the untreated samples gave a score of 0 for both.

Data set [3] concerns potato blight Phytophthora infestans. Format: in vivo. As to conditions: 2000 ppm; 5 days; controls less than 5%.
Data set [4] deals with Pythium ultimum. Nature of the data set: Cabbage seedling emergence in soil infected with Pythium ultimum. Format: in vivo, Pythium ultimum (on cabbage, variety Flower of Spring). The settings on record: 6 days, 25° C. As to the method: as §1, §2, §3, §4, §5
Data set [5] relates to rice blast Pyricularia oryzae. Format: in vivo. The settings on record: 2000 ppm; soil and leaves; 7 days; controls less than 5%.
Data set [6] relates to barley powdery mildew Erysiphe graminis. Nature of the data set: Barley powdery mildew control on barley plants. The settings on record: 2000 ppm; soil and leaves; 10 days; controls less than 5%. Format: in vivo.
In data set [7] the test system is cucumber powdery mildew Erysiphe cichoracearum. Nature of the data set: Cucumber powdery mildew control on cucumber plants. The settings on record: 2000 ppm; soil and leaves; 14 days; controls less than 5%. Format: in vivo.
The subject of data set [8] is cabbage seeds, variety Flower of Spring. As to the kind of experiment: Phytotoxicity of chemical alone on cabbage seed germination (chemical only soil treatment). Format: in vivo. As to the method: as §3, with “seed. and are given in the following table. Any phytotoxicity induced by the chemical alone is deduced from the chemical only soil treatment.” for “seed.”
The subject of data set [9] is vine downy mildew Plasmopara viticola. As to the kind of experiment: Vine downy mildew control on vine plants (leaf application). Format: in vivo. As to conditions: leaves, 12 days, controls less than 5%. As to the method: Aqueous acetone solutions or suspensions containing 2000 or 500 mg of the compound listed below per liter, together with 125 mg of a wetting agent per liter, were applied to:
(B) the leaves of vine plants having five fully expanded leaves;
The treated plants, together with controls treated with wetting agent alone, were inoculated 24 hours after the chemical application:
in the case of (B) with an aqueous suspension of sporangia of the disease organism vine downy mildew Plasmopara viticola;
in the case of (B) were placed in an atomosphere of 80-100% humidity at 14°-18° C. until the disease incidence was measured twelve days later;

Setting [10] is: 300 ppm, 0-8 scale (Examples 233, 234, 268).
Setting [11] is: 100 ppm, 0-8 scale (Examples 233, 234).

For the compound `Cc1cccc(Cl)c1N(CC1(C)OCCO1)S(C)(=O)=O` [Example 230, N-[(2-methyl-1,3-dioxolan-2-yl)methyl]-2'-chloro-6'-methylmethanesulphonanilide], the “% Control Vine Downing Mildew” value in [1] is 80%.

Turning to `CC(=O)CN(c1ccc(C)c(C)c1)S(C)(=O)=O` [Example 272, N-(2-oxopropyl)-3',4'-dimethylmethanesulphonanilide], in [2] (setting [10]), the “Mycelial Control Score” value was 0 (<20% inhibition). In addition, the “% Control, potato blight” value in data set [3] stood at 62%. Also, the “Germination Score” value in [4] (setting [10]) is on record as 3 (45-54% inhibition). For the same compound, in data set [5], the “% Control, rice blast” value is reported as 67%. In addition, the “% Control, barley powdery mildew” value in data set [6] worked out at 99%.

Consider `Cc1cccc(C)c1N(C1CCOC1=O)S(C)(=O)=O` (centres unmarked) [Example 123], for which, in data set [7], the “% Control, cucumber powdery mildew” value is 92%. Besides, in data set [6], the “% Control, barley powdery mildew” value worked out at 95%.

For the compound `COC(C)(CN(c1c(C)cccc1Cl)S(C)(=O)=O)OC` [Example 222, N-(2,2-dimethoxypropyl)-2'-chloro-6'-methyl-methanesulphonanilide], the “Mycelial Control Score” value in [2] (setting [11]) was 3 (45-54% inhibition); in data set [2] (setting [10]) it was 4 (55- 64% inhibition). For the same compound, the “Phytotoxicity Score” value in [8] (100 ppm) and in [8] (300 ppm) was 0 throughout. The “Germination Score” value in data set [4] (setting [11]) and in data set [4] (setting [10]) was 1 (20-34% inhibition) in each case. For the same compound, the “% Control Vine Downing Mildew” value in data set [1] was 94%.

Take `COC(=O)C(C)N(c1c(C)cccc1C)S(C)(=O)=O` (centres unmarked) [Example 29, N-(1-(methoxycarbonyl)ethyl)-2',6'-dimethyl-methanesulphonanilide]: the figures for the “% Control, vine downy mildew” value in data set [9] (500 ppm) and in data set [9] (2000 ppm) were 90% and 98%, respectively.

The values are drawn from patent US4309559A, “Sulphonamides useful as pesticides” (FBC Limited, priority 1977, dated 1982).
